The record followed here is patent US8343990B2, “Substituted cyclopropyl compounds, compositions containing such compounds and methods of treatment” (Merck Sharp & Dohme Corp., priority 2008, dated 2013).

The structures appear in SMILES notation. Where a name gives a salt, the structure may show the parent alone.

Broadly, the EC50 is the midpoint of the concentration-response curve.

The assay concerns the target T1, GPR119 receptor (UniProt Q8TDV5, S309L, species not given).
T1 sequence (Q8TDV5 1-335 S309L): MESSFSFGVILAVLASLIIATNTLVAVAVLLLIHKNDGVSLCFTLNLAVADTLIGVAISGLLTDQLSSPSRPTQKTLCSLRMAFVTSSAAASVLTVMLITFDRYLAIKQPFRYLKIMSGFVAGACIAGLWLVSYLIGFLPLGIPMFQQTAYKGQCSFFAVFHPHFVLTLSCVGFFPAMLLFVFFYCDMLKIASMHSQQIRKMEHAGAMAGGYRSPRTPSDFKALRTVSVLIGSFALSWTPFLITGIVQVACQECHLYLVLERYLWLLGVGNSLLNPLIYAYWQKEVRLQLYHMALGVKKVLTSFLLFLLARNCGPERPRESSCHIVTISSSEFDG
Briefly: GPR119 signaling, cyclic AMP (cAMP) homogenous time resolved fluorescence (HTRF) assay. It counts as cell-based. The conditions noted are these: CHO cells with Gα15 and murine GPR119, or HEK293 Flp-In cells with human GPR119 S309L; table does not say which; read-out: Activity: inflection points, denoted as EC50 values (agonist activation of GPR119, cAMP). The method, boiled down: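 Agonist-induced cAMP measured in CHO cells expressing Gα15 plus murine GPR119, or HEK293 Flp-In cells expressing human S309L variant. Suspended cells exposed to compound titration 60 min at room temperature, lysed, HTRF read after 60 min; EC50 and efficacy versus internal agonist from 4-parameter fit.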
(TR-FRET usually uses a lanthanide donor and a delayed reading to cut background.)

For the molecule `Cc1nnc(-c2ccc(OCC[C@H]3C[C@H]3C3CCN(c4ncc(Cl)c(C)n4)CC3)cc2F)o1` (racemic) [Ex 87, Rac-cis-5-chloro-2-[4-(2-{2-[3-fluoro-4-(5-methyl-1,3,4-oxadiazol-2-yl)phenoxy]ethyl}cyclopropyl)piperidin-1-yl]-4-methylpyrimidine], the EC50 is less than 10 nM.
In the case of `Cc1nnc(-c2ccc(OCC[C@H]3C[C@H]3C3CCN(c4ncc(Cl)cc4Cl)CC3)cc2F)o1` (racemic) [Ex 88, Rac-cis-3,5-dichloro-2-[4-(2-{2-[3-fluoro-4-(5-methyl-1,3,4-oxadiazol-2-yl)phenoxy]ethyl}cyclopropyl)piperidin-1-yl]pyridine], the EC50 was greater than 200 nM.
On to `Cc1nnc(-c2ccc(OCC[C@H]3C[C@H]3C3CCN(c4ccc(C(F)(F)F)cn4)CC3)cc2F)o1` (racemic) [Ex 89, Rac-cis-2-[4-(2-{2-[3-fluoro-4-(5-methyl-1,3,4-oxadiazol-2-yl)phenoxy]ethyl}cyclopropyl)piperidin-1-yl]-5-(trifluoromethyl)pyridinium trifluoroacetate], for which the EC50 was less than 10 nM.
For `CS(=O)(=O)c1ccc(OCC[C@@H]2C[C@H]2C2CCN(c3ncc(Cl)cn3)CC2)cc1` (racemic) [Ex 90, rac-trans-5-chloro-2-[4-(2-{2-[4-(methylsulfonyl)phenoxy]ethyl}cyclopropyl)piperidin-1-yl]pyrimidine], the EC50 was in the range of 10 to 50 nM.
With `Clc1cnc(N2CCC(C3CC3CCOc3ccncc3)CC2)nc1` (racemic) [Ex 92, rac-trans-5-chloro-2-(4-{2-[2-(pyridin-4-yloxy)ethyl]cyclopropyl}piperidin-1-yl)pyrimidine] the figure was 50 to 200 nM.
Then `Clc1cnc(N2CCC(C3CC3CCOc3ccncc3)CC2)nc1` (racemic) [Ex 98, rac-trans-5-chloro-2-(4-{2-[2-(pyridin-4-yloxy)ethyl]cyclopropyl}piperidin-1-yl)pyrimidine], with 50 to 200 nM; and `Cc1cc(OCC[C@@H]2C[C@H]2C2CCN(c3ncc(Cl)cn3)CC2)nc(C#N)n1` (racemic) [Ex 99, rac-trans-4-{2-{2-[1-(5-chloropyrimidin-2-yl)piperidin-4-yl]cyclopropyl}ethoxy)-6-methylpyrimidine-2-carbonitrile], with 10 to 50 nM.
With `Cc1nc(C#N)cc(OCCC2CC2C2CCN(c3ncc(Cl)cn3)CC2)n1` (racemic) [Ex 100, rac trans 6-(2-{2-[1-(5-chloropyrimidin-2-yl)piperidin-4-yl]cyclopropyl}ethoxy)-2-methylpyrimidine-4-carbonitrile] the figure was 10 to 50 nM; with `CS(=O)(=O)c1ccc(OC[C@@H]2C[C@H]2CC2CCN(c3ncc(Cl)cn3)CC2)cc1` (racemic) [Ex 101, rac-trans-5-chloro-2-{4-[(2-{[4-(methylsulfonyl)phenoxy]methyl}cyclopropyl)methyl]piperidin-1-yl}pyrimidine], 50 to 200 nM; with `N#Cc1ccc(OC[C@@H]2C[C@H]2CC2CCN(c3ncc(Cl)cn3)CC2)cc1F` (racemic) [Ex 104, Rac-trans-4-[(2-{[1-(5-chloropyrimidin-2-yl)piperidin-4-yl]methyl}cyclopropyl)methoxy]-2-fluorobenzonitrile], 50 to 200 nM.
In the case of `O=C(NC1CC1)c1ccc(OC[C@@H]2C[C@H]2CC2CCN(c3ncc(Cl)cn3)CC2)cc1F` (racemic) [Ex 106, Rac-trans 4-[(2-{[1-(5-chloropyrimidin-2-yl)piperidin-4-yl]methyl}cyclopropyl)methoxy]-N-cyclopropyl-2-fluorobenzamide], the EC50 is less than 10 nM.
`Fc1cc(OC[C@@H]2C[C@H]2CC2CCN(c3ncc(Cl)cn3)CC2)ccc1-c1nnc(C2CC2)o1` (racemic) [Ex 111, rac-trans 5-chloro-2-{4-[(2-{[4-(5-cyclopropyl-1,3,4-oxadiazol-2-yl)-3-fluorophenoxy]methyl}cyclopropyl)methyl]piperidin-1-yl}pyrimidine]: the 50% effective concentration (EC50) is 10 to 50 nM.
Then `Cc1nc(C#N)cc(OC[C@@H]2C[C@H]2CC2CCN(c3ncc(Cl)cn3)CC2)n1` (racemic) [Ex 113, rac-trans-6-[(2-{[1-(5-chloropyrimidin-2-yl)piperidin-4-yl]methyl}cyclopropyl)methoxy]-2-methylpyrimidine-4-carbonitrile], with 50 to 200 nM; and `Cc1cc(OC[C@@H]2C[C@H]2CC2CCN(c3ncc(Cl)cn3)CC2)nc(C#N)n1` (racemic) [Ex 114, rac-trans-4-[(2-{[1-(5-chloropyrimidin-2-yl)piperidin-4-yl]methyl}cyclopropyl)methoxy]-6-methylpyrimidine-2-carbonitrile], with 50 to 200 nM.
With `N#Cc1ccc(OCC2CC2CC2CCN(c3ncc(Cl)cn3)CC2)c(F)c1` (racemic) [Ex 115, rac-trans-4-[((1S,2S)-2-{[1-(5-chloropyrimidin-2-yl)piperidin-4-yl)methyl}cyclopropyl)methoxy]-3-fluorobenzonitrile] the figure was 10 to 50 nM; with `CS(=O)(=O)c1ccc(OC[C@H]2C[C@H]2CC2CCN(c3ncc(Cl)cn3)CC2)cc1` (racemic) [Ex 116, rac-cis-5-chloro-2-{-4-[(2-{[4-(methylsulfonyl)phenoxy]methyl}cyclopropyl)methyl]piperidin-1-yl}pyrimidine], greater than 200 nM; with `O=C(NC1CC1)c1ccc(OC[C@@H]2C[C@@H]2CC2CCN(c3ncc(Cl)cn3)CC2)cc1F` (racemic) [Ex 117, rac-cis 4-[(2-{[1-(5-chloropyrimidin-2-yl)piperidin-4-yl]methyl}cyclopropyl)methoxy]-N-cyclopropyl-2-fluorobenzamide], 10 to 50 nM.
Then `Cc1cc(OC[C@@H]2C[C@@H]2CC2CCN(c3ncc(Cl)cn3)CC2)nc(C#N)n1` (racemic) [Ex 118, rac-cis-4-[(2-{[1-(5-chloropyrimidin-2-yl)piperidin-4-yl]methyl}cyclopropyl)methoxy]-6-methylpyrimidine-2-carbonitrile], with 10 to 50 nM; and `N#Cc1ccc(OC[C@@H]2C[C@@H]2CC2CCN(c3ncc(Cl)cn3)CC2)cc1F` (racemic) [Ex 119, rac-cis 4-[(2-{[1-(5-chloropyrimidin-2-yl)piperidin-4-yl]methyl}cyclopropyl)methoxy]-2-fluorobenzonitrile], with greater than 200 nM.
For the molecule `C[S+]([O-])c1ccc(OCCC2CC2C2CCN(c3ncc(Cl)cn3)CC2)cc1` (single isomer, unassigned) [Ex 33, Chiral-cis-5-chloro-2-[4-(2-{2-[4-(methylsulfinyl)phenoxy]ethyl}cyclopropyl)piperidin-1-yl]pyrimidine], the EC50 is less than 10 nM.
Then `Cc1nc(C#N)cc(OCCC2CC2C2CCN(c3ncc(Cl)cn3)CC2)n1` (single isomer, unassigned) [Ex 34, Chiral-cis-6-(2-{2-[1-(5-chloropyrimidin-2-yl)piperidin-4-yl]cyclopropyl}ethoxy)-2-methylpyrimidine-4-carbonitrile], with less than 10 nM.
Then `Cc1cnc(N2CCC(C3CC3CCOc3cc(C#N)nc(C)n3)CC2)nc1` (single isomer, unassigned) [Ex 39, Chiral-cis-2-methyl-6-(2-{2-[1-(5-methylpyrimidin-2-yl)piperidin-4-yl]cyclopropyl}ethoxy)pyrimidine-4-carbonitrile], with less than 10 nM.
